Numbered stars: 1 amine (or outer) side, 2 acyl side, 3 side chain; on linkers, the order of the positions; unused ones are H or OH. Bridge positions count the residues as written; N and C are the ends. Square brackets hold non-standard residues; d marks the D form. Peptide text beside a SMILES is read from it. * marks the point of attachment. X1 = O=C([C@H](CCCCCC=[*:3])N[*:1])[*:2]; Nle = CCCC[C@H](N)C(=O)O; BrAc = O=C(CBr)*
Experiments:
[1] = system: FtsB-mNG localization in E. coli lptD4213 (imp); assay: Localization of FtsB-mNG (fluorescence microscopy); assay type: cell-based; conditions: peptide c = 100 μM, 60 min after addition, MOPS rich medium, 37 °C
Protocol: were incubated for 1 h at 50 °C. The condensates were collected by centrifuging for 10 s. The digests were mixed for a few seconds and transferred to another tube. 0.5 % TFA was added to inactivate trypsin. The samples were […]
E.coli mutant lptD4213 (imp)
MOPS: MOPS EZ Rich Defined Medium Kit M2105 (Teknova).
At the end of the day, the cells
The next day, the cells were grown and diluted […]
objective. […] In all experiments, the cells […]
ex470/40, dic495LP, em525/50).

E. coli 87 = assay type: cell-based, Escherichia coli
Protocol: 1.11 Checkerboard synergy assay
As described by Hsieh et al.,6 two-fold dilution series of cationic peptides were made in polypropylene microtiter plates (Ratiolab, L6018123, Dreieich, Germany) in 50 μL volume of MOPS medium/2% DMSO. Primary clinical isolates of Escherichia coli 87 were provided by Dr. Karin van Dijk, Amsterdam UMC. In a similar manner, two-fold dilution series of 17fα were made in polystyrene microtiter plates (Costar, REF3779, Corning NY, United States) in 70 μL volume of MOPS medium. Then, 50 μL of the 17fα series was transferred to the L8S1 containing polypropylene plate, resulting in a checkerboard titration of a L8S1 on the vertical axis and an 17fα on the horizontal axis. Mid-log phase cultures were diluted to OD600 0.1 and 10 μL culture was added to each well of the microtiter plate, resulting in a total volume of 110 μL and an OD600 of ~0.01 ([…]), and the OD600 was measured every 15 min for 12 h using the microplate reader. First, the MIC values of the compounds alone were determined as described previously. Similarly, the MIC values of the compound combination were determined (the fractional inhibitory concentrations (FIC))6. With these MIC values and FIC values, the fractional inhibitory concentration index (FICindex) was calculated as follows:
FIC = FICantibiotic + FICpeptide (1) […]

[2] = Toxicity test in uninfected zebrafish larvae; conditions: 15 zebrafish per condition, L8S1 3.125 µM, 17fα 70 µM, n = 1 replicate
FtsQ(50–276) = FtsQ(50–276) (Escherichia coli, UniProt P06136); assay type: biochemical, E. coli; parameters: pET16b FtsQ(50˗276), a His6 fusion; made in house; host or cells: Escherichia coli BL21 DE3; conditions: peptide 125 μM, FtsQ(50–276) 50 μM, 37 °C, 1 or 3 h
Sequence of FtsQ(50–276) (P06136 50-276): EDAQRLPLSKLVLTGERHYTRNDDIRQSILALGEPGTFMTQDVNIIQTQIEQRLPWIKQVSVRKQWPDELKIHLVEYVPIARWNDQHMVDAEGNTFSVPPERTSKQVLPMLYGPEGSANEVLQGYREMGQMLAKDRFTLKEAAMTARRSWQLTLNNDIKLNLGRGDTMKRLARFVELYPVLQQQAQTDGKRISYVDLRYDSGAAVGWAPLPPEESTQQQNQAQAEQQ
Protocol: 1.5 Protein modification assay
To determine the reactivity of the different modifiers FtsQ(50˗276) was diluted to a concentration of 100 µM in 20 mM NH4HCO3 buffer (pH 7.6, 150 mM NaCl). The individual peptides were diluted to a concentration of 250 μM in the same buffer. Equal volumes of both solutions were mixed and incubated at 37 °C for the given time period (1 h or 3 h). The reaction was quenched using 5x SDS sample buffer (pH 6.8, 1.875 g TRIS-Cl, 25 mL glycerol, 5 g SDS, 12.5 mL β-mercaptoethanol, 0.5 % bromphenol blue and add 50 mL ddH2O). Samples were heated to 96 °C for 2 min and subsequently analysed by 17 % tris/tricine PAGE (15 min at 90 V and then 3:45 h at 150 V). PageRuler™ Prestained Protein Ladder, 10 to 180 kDa (Thermo Scientific™) was used as a ladder.
Staining was performed using standard Coomassie Staining Solution (40 mL EtOH, 0.3 g Coomassie Blue R250, 0.3 g Coomassie Blue G250, ad 100 mL ddH2O.) and then destained using water.
17 % Tris/Tricine gel (2x):
Running gel: 1.6 mL H2O, 5.5 mL AB-mix, 2.5 mL Buffer A, 100 μL 10% APS, 10 μL 1% TEMED Stacking gel: 2.1 mL H2O, 0.5 mL AB-mix, 0.38 mL Buffer A, 50 μL 10% APS, 5 μL 1% TEMED […]
Buffer A (4x) pH 8.45 3M Tris, 0.3 % SDS; Anode Buffer (10x) pH 8.8, 3M Tris; Cathode buffer (10x) 1M Tris, […]

SMILES: CCCC[C@@H]1NC(=O)[C@H](CO)NC(=O)[C@H](CC(C)C)NC(=O)[C@H](CCC(=O)O)NC(=O)[C@H](CC(N)=O)NC(=O)[C@@H](NC(=O)[C@H](C)NC(C)=O)CCCCCC=CCCCCC[C@@H](C(=O)N[C@@H](CCCCNC(=O)CBr)C(=O)N[C@@H](Cc2ccccc2)C(=O)N[C@@H](Cc2ccc(O)cc2)C(=O)N[C@@H](CCCNC(=N)N)C(=O)N[C@@H](CC(C)C)C(N)=O)NC(=O)CNC(=O)[C@@H]2CCCN2C(=O)[C@H](CCCNC(=N)N)NC(=O)[C@H]([C@@H](C)O)NC1=O [17fα] (Ac-A[X1]NELS[Nle]TRPG[X1]K(BrAc)FYRL-NH2; staple 2-12)
- FtsB-mNG midcell localization [1]: loss of midcell localization
- FICindex (fractional inhibitory concentration index) (E. coli 87; 17fα in combination with L8S1, checkerboard synergy assay, OD600 after 12 h, MIC = 90% growth inhibition, from averages of MICs (L8S1 n = 3, 17fα n = 5), ≤ 0.5 synergistic): 0.33
- inhibitor concentration required for growth inhibition (E. coli 87; clinical multidrug-resistant E. coli 87, MOPS medium, OD600): > 100 µM
- Surviving zebrafish, Day 1 [2]: 15
- Surviving zebrafish, Day 2 [2]: 15
- specificity of FtsQ(50–276) modification (number of up-shifted bands) (FtsQ(50–276)): robust and selective covalent modification

Source: article PMC9413201, “Covalent Proteomimetic Inhibitor of the Bacterial FtsQB Divisome Complex” (Journal of the American Chemical Society, 2022)
